Target: T1, S. aureus PrsA-PPIase (Staphylococcus aureus, UniProt P60747)
T1 construct: parvulin-type PPIase domain, residues 140-245, GST fusion (pGEX-2T) from E. coli BL21, GST cleaved off by protease; 15N- or 13C/15N-labelled for NMR
Assay: NMR titration
Format: binding
Details: S1-H1 loop; data not shown

T1 sequence (P60747 140-245): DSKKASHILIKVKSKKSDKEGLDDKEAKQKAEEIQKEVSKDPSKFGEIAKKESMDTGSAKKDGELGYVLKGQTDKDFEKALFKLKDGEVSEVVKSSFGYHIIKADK

## O=S(=O)(O)O [sodium sulphate]
  NMR titration: Binding of multivalent anions to the S1-H1 loop of PrsA-PPIase was also confirmed by NMR titrations

Source: publication PMC2678132, “Solution structure of the parvulin-type PPIase domain of Staphylococcus aureus PrsA – Implications for the catalytic mechanism of parvulins” (BMC Structural Biology, 2009)
